20 compounds from patent publication US8828987B2, “Pyridine amide derivatives as EP4 receptor antagonists” (Rottapharm Biotech S.R.L., priority 2010, dated 2014) can be followed below.

In assay [1] the target is T1, human EP4 receptor (Homo sapiens, UniProt P35408).
T1 construct: expressed in transfected cells; membrane fraction used
Nature of the assay: [3H]-Prostaglandin E2 membrane binding assay (human EP4/HEK293 transfectant membranes). The conditions noted are these: [3H]-PGE2 1 nM, hEP4/HEK293 membranes; Ki by Cheng-Prusoff; read-out: Binding pKi (converted). An excerpt:
(§1) Stable Expression of Human EP4 Receptors in the Human Embryonic Kidney (HEK293) Cell Line
(§2) The cDNA clone of human EP4 receptor (NM_000958.2) was obtained from Invitrogen™: Ultimate™ ORF Clone Collection—Clone ID IOH46525. The coding sequence was subcloned in expression vector pcDNA™6.2/V5-DEST by Gateway technology (Invitrogen™).
(§3) Human embryonic kidney cells (HEK-293) were stably transfected with expression vector for human EP4 receptor in according to the method described in FuGENE®6 Transfection Reagent's manual (Roche Applied Science®).
(§4) Preparation of Membrane Fraction:
(§5) The EP4 transfected cells were grown in Dulbecco's modified Eagle's medium containing 10% fetal bovine serum and 10 μg/ml Blasticidin S HCl (selection medium) at 37° C. in a humidified atmosphere of 5% CO2 in air.
(§6) For the membrane preparation, cells in flask were harvested by hypotonical/mechanical lysis with chilled (4° C.) TE buffer (5 mM TRIS, 5 mM etylenediamine tetra-acetic acid (EDTA), pH 7.4).
(§7) Cells were detached and lysed with 10 ml of hypotonic lysis buffer and by scraping. The cell lysate was vortexed for 30 sec and centrifuged at 40000×g at 4° C. for 22 min.
a) Membrane Binding Assay[3H]-Prostaglandin E2
The membrane pellet was resuspended in the same buffer (5 mM TRIS, 5 mM ethylenediamine tetra-acetic acid (EDTA), pH 7.4), and protein concentration was determined by Bradford method (Bio-Bad® assay).
This membrane preparation was stored at −80° C. freezer until use for binding assay.
([^3H]-PGE2) membranes binding assays toward hEP4 receptors (human EP4/HEK293 transfectant, see above) and hEP2 receptors (human EP2/HEK293 transfectant, purchased from PerkinElmer Inc) were performed in 10 mM MES-KOH buffer pH6, containing 10 mM MgCl2 and 1 mM CaCl2 for EP4 binding assay or 50 mM Tris-Cl, BSA 0.5% for EP2 binding assay (according to supplier indication).
Ten microgram of protein from membrane fractions were incubated in a total volume of 0.1 ml (EP4) or 0.2 ml (EP2) with 1 nM (EP4) or 3 nM (EP2) [^3H]-PGE2 (PerkinElmer Inc, 171 Ci/mmol). In both assays to determine the total binding or non specific binding, 1% DMSO or 1 μM prostaglandin E2 (EP4) or 100 μM (EP2) were added to reaction mixtures, respectively. Incubation was conducted in a polypropylene 96 multiwell for 90 min (EP4) or 60 min (EP2) at room temperature prior to separation of the bound and free radioligand by vacuum manifold rapid filtration on glass fiber filters (Unifilter GFB96, PerkinElmer Inc) pre-soaked in 0.3% polyethyleneimine. Filters were washed with ice cold buffer pH 7.4 (50 mM HEPES, NaCl 500 mM, BSA 0.1% for EP4 binding assay or 50 mM Tris-Cl for EP2 binding assays) and the residual [^3H]-PGE2 binding determined by solid scintillation counter (TopCount, PerkinElmer Inc).
The affinity (Ki) of each compound was calculated according to the Cheng-Prousoff equation: Ki=IC50/(1+([C]/Kd)). Results were expressed as pKi (−log 10 Ki (M)
Compounds of example 1 to 82 were tested according to method of example 83a in a final concentration range from 1 nM to 1 μM.

The target of assay [2] is T1, human EP4 receptor. Nature of the assay: cAMP assay (AlphaScreen) on human EP4 membrane of transfected cells, antagonism of PGE2. The assay is classed as biochemical. Conditions: HEK293 hEP4 cell membrane stimulated with PGE2 3 nM; read-out: functional IC50.
Description: as §1, §2, §3, §4, §5, §6, §7
b) cAMP Assay on Human EP4 Membrane of Transfected Cells.
The assay is based on the competition between endogenous cAMP and exogenously added biotinylated cAMP. The capture of cAMP is achieved by using a specific antibody conjugated to […] beads.
Cell membranes prepared as described above, were resuspended in 1 ml stimulation buffer (HBSS 1×+BSA 0.1%+IBMX 0.5 mM+HEPES 5 mM+MgCl2 10 mM+GTP 1 nM+GDP 10 μM+ATP 100 μM−pH 7.4). Cell membranes were dispensed into white 384-well microplates at final concentration of 1 μg/well and used for the determination of cAMP with the alphascreen cAMP functional assay (EnVision—PerkinElmer). Cell membrane/anti-cAMP Acceptor beads mix (5 μl) and a mixture of analysed compounds (dissolved in 100% DMSO to a final maximal concentration of 0.01% DMSO)/PGE2 (5 μl) were incubated at room temperature (22-23° C.) for 30 min in the dark. The Biotinylated-cAMP and donor beads (15 μl) were dispensed into each well to start the competition reaction. After 1 h incubation RT (22-23° C.) in the dark the plate was read using EnVision platform to determine the cAMP level (excitation: 680 nm; emission: 520,620 nm).
cAMP standard curve (concentration range from 1×10-6 to 1×10-11 M in. log intervals) with a negative control (no cAMP) a positive control:forskolin 10 μM
Antagonism studies were performed stimulating HEK293 cell membrane with PGE2 3 nM. The AlphaScreen signal is plotted as a function of log concentration of cAMP and functional IC50 is determined. IC50 value is calculated by linear regression.
Some compounds were tested according to method of example 83b.

T1 sequence (P35408 whole entry): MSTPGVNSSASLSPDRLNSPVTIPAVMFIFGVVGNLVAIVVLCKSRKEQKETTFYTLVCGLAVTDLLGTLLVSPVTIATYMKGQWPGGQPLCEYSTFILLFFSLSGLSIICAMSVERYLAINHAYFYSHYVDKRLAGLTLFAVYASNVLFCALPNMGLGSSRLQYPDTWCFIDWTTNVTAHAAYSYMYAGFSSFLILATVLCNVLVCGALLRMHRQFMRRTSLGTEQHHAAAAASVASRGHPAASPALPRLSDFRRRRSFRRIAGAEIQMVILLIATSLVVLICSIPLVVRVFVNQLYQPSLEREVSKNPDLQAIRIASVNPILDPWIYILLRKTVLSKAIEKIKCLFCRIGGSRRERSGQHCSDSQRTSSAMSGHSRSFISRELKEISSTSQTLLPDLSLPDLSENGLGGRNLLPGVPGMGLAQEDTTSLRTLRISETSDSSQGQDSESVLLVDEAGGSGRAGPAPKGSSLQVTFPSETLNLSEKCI

The term IC50 denotes the concentration at which inhibition is half-maximal. As to `O=C(O)c1ccc(C2(NC(=O)c3cc(Cl)cnc3N3CC(Nc4cccc(F)c4)C3)CC2)cc1` [E 32, 4-(1-(5-chloro-2-(3-((3-fluorophenyl)amino)azetidin-1-yl)nicotinamido)cyclopropyl)benzoic acid], at human EP4 receptor [1], the Ki was 25.1 nM. Besides, the IC50 at human EP4 receptor [2] is 76 nM.
The corresponding values for `O=C(O)c1ccc(C2(NC(=O)c3cc(C(F)(F)F)cnc3N3CC(Nc4ccc(F)cc4F)C3)CC2)cc1` [E 52, 4-(1-(2-(3-((2,4-difluorophenyl)amino)azetidin-1-yl)-5-(trifluoromethyl)nicotinamido)cyclopropyl)benzoic acid] are 20 nM and 74 nM.
The corresponding values for `Cc1cc(F)ccc1NC1CN(c2ncc(F)cc2C(=O)NC2(c3ccc(C(=O)O)cc3)CC2)C1` [E 56, 4-(1-(5-fluoro-2-(3-((4-fluoro-2-methylphenyl)amino)azetidin-1-yl)nicotinamido)cyclopropyl)benzoic acid] are 10 nM and 46 nM.
The corresponding values for `O=C(O)c1ccc(CNC(=O)c2cc(Cl)cnc2N2CC(Oc3cccc(F)c3)C2)cc1` [E 22, 4-((5-chloro-2-(3-(3-fluorophenoxy)azetidin-1-yl)nicotinamido)methyl)benzoic acid] are 31.6 nM and 119 nM.
In the case of `O=C(O)c1ccc(C2(NC(=O)c3cc(C(F)(F)F)cnc3N3CC(Oc4ccc(F)cc4F)C3)CC2)cc1` [E 44, 4-(1-(2-(3-(2,4-difluorophenoxy)azetidin-1-yl)-5-(trifluoromethyl)nicotinamido)cyclopropyl)benzoic acid], the Ki on human EP4 receptor [1] was 10 nM. Also, on human EP4 receptor [2], the IC50 is 17.5 nM.
The corresponding values for `O=C(O)c1ccc(C2(NC(=O)c3cc(Cl)cnc3N3CC(Nc4cccc(C(F)(F)F)c4)C3)CC2)cc1` [E 31, 4-(1-(5-chloro-2-(3-((3-(trifluoromethyl)phenyl)amino)azetidin-1-yl)nicotinamido)cyclopropyl)benzoic acid] are 7.94 nM and 47 nM.
For `O=C(O)c1ccc(C2(NC(=O)c3cc(C(F)(F)F)cnc3N3CC(Oc4cccc(C(F)(F)F)n4)C3)CC2)cc1` [E 47, 4-(1-(5-(trifluoromethyl)-2-(3-((6-(trifluoromethyl)pyridin-2-yl)oxy)azetidin-1-yl)nicotinamido)cyclopropyl)benzoic acid], the Ki at human EP4 receptor [1] was 63.1 nM. For the same compound, the IC50 at human EP4 receptor [2] came to 228 nM.
Regarding `C[C@H](NC(=O)c1cc(Cl)cnc1N1CC(Oc2ccc(F)cc2)C1)c1ccc(C(=O)O)cc1` [E 11, (S)-4-(1-(5-chloro-2-(3-(4-fluorophenoxy)azetidin-1-yl)nicotinamido)ethyl)benzoic acid], at human EP4 receptor [1], the Ki is 100 nM. In addition, the IC50 at human EP4 receptor [2] turned out to be 386 nM.
Consider `O=C(O)c1ccc(C2(NC(=O)c3cc(Cl)cnc3N3CCC(Oc4ccccc4)C3)CC2)cc1` (single isomer, unassigned) [E 60], for which the Ki at human EP4 receptor [1] is 79.4 nM. Moreover, the IC50 at human EP4 receptor [2] came to 96.5 nM.
The corresponding values for `O=C(O)c1ccc(C2(NC(=O)c3cc(Cl)cnc3N3CC[C@H](Oc4cccc(F)c4)C3)CC2)cc1` [E 80, (S)-4-(1-(5-chloro-2-(3-(3-fluorophenoxy)pyrrolidin-1-yl)nicotinamido)cyclopropyl)benzoic acid] are 39.8 nM and 99 nM.
`O=C(O)c1ccc(C2(NC(=O)c3cc(Cl)cnc3N3CC(Oc4ccc(F)cc4F)C3)CC2)cc1` [E 19, 4-(1-(5-chloro-2-(3-(2,4-difluorophenoxy)azetidin-1-yl)nicotinamido)cyclopropyl)benzoic acid]: at human EP4 receptor [1], the Ki is 50.1 nM. In addition, the IC50 at human EP4 receptor [2] turned out to be 87 nM.
Take `O=C(O)c1ccc(C2(NC(=O)c3cc(Cl)cnc3N3CC(C(=O)c4cccc(F)c4)C3)CC2)cc1` [E 25, 4-(1-(5-chloro-2-(3-(3-fluorobenzoyl)azetidin-1-yl)nicotinamido)cyclopropyl)benzoic acid]: the Ki at human EP4 receptor [1] is 63.1 nM. Besides, the IC50 on human EP4 receptor [2] was 135 nM.
Turning to `O=C(O)c1ccc(C2(NC(=O)c3cc(Cl)cnc3N3CCC(Oc4ccccc4)C3)CC2)cc1` (single isomer, unassigned) [E 62], the Ki at human EP4 receptor [1] was 25.1 nM. Besides, the IC50 at human EP4 receptor [2] came to 46 nM.
The corresponding values for `O=C(O)c1ccc(C2(NC(=O)c3cc(Cl)cnc3N3CCCC3c3ccccc3)CC2)cc1` (single isomer, unassigned) [E 3, 4-(1-(5-chloro-2-(2-phenylpyrrolidin-1-yl)nicotinamido)cyclopropyl)benzoic acid] are 31.6 nM and 133 nM.
The corresponding values for `O=C(O)c1ccc(C2(NC(=O)c3cc(C(F)(F)F)cnc3N3CC(Oc4cccc(Cl)c4)C3)CC2)cc1` [E 41, 4-(1-(2-(3-(3-chlorophenoxy)azetidin-1-yl)-5-(trifluoromethyl)nicotinamido)cyclopropyl)benzoic acid] are 5.01 nM and 7.7 nM.
The corresponding values for `O=C(O)c1ccc(C2(NC(=O)c3cc(Cl)cnc3N3CCC[C@@H]3COc3cccc(F)c3)CC2)cc1` [E 77, 4 (R)-4-(1-(5-chloro-2-(2-((3-fluorophenoxy)methyl)pyrrolidin-1-yl)nicotinamido)cyclopropyl)benzoic acid] are 10 nM and 90 nM.
With `O=C(O)c1ccc(C2(NC(=O)c3cc(C(F)(F)F)cnc3N3CC(Oc4ccc(F)c(F)c4)C3)CC2)cc1` [E 45, 4-(1-(2-(3-(3,4-difluorophenoxy)azetidin-1-yl)-5-(trifluoromethyl)nicotinamido)cyclopropyl)benzoic acid], the Ki at human EP4 receptor [1] is 3.16 nM. For the same compound, on human EP4 receptor [2], the IC50 was determined as 10 nM.
Turning to `O=C(O)c1ccc(C2(NC(=O)c3cc(C(F)(F)F)cnc3N3CC(Nc4cccc(F)c4)C3)CC2)cc1` [E 49, 4-(1-(2-(3-((3-fluorophenyl)amino)azetidin-1-yl)-5-(trifluoromethyl)nicotinamido)cyclopropyl)benzoic acid], the Ki on human EP4 receptor [1] is 25.1 nM. Besides, the IC50 at human EP4 receptor [2] is 69 nM.
The corresponding values for `Cc1cc(F)ccc1N(C)C1CN(c2ncc(Cl)cc2C(=O)NC2(c3ccc(C(=O)O)cc3)CC2)C1` [E 37, 4-(1-(5-chloro-2-(3-((4-fluoro-2-methylphenyl)(methyl)amino)azetidin-1-yl)nicotinamido)cyclopropyl)benzoic acid] are 12.6 nM and 31 nM.
The corresponding values for `O=C(O)c1ccc(C2(NC(=O)c3cc(Cl)cnc3N3CC(O)(c4ccc(F)cc4)C3)CC2)cc1` [E 28, 4-(1-(5-chloro-2-(3-(4-fluorophenyl)-3-hydroxyazetidin-1-yl)nicotinamido)cyclopropyl)benzoic acid] are 79.4 nM and 197 nM.
